In paper PMC12679645, “Diversifying the triquinazine scaffold of a Janus kinase inhibitor” (RSC Medicinal Chemistry, 2025) one finds inhibition and IC50 data, which are given here for 16 molecules.

Structures are written as SMILES. Read-outs that look alike come from different tables or passages of the source.

Assay [1] deals with T1, JAK3 (Homo sapiens, UniProt P52333).
T1 sequence (P52333 1-1124): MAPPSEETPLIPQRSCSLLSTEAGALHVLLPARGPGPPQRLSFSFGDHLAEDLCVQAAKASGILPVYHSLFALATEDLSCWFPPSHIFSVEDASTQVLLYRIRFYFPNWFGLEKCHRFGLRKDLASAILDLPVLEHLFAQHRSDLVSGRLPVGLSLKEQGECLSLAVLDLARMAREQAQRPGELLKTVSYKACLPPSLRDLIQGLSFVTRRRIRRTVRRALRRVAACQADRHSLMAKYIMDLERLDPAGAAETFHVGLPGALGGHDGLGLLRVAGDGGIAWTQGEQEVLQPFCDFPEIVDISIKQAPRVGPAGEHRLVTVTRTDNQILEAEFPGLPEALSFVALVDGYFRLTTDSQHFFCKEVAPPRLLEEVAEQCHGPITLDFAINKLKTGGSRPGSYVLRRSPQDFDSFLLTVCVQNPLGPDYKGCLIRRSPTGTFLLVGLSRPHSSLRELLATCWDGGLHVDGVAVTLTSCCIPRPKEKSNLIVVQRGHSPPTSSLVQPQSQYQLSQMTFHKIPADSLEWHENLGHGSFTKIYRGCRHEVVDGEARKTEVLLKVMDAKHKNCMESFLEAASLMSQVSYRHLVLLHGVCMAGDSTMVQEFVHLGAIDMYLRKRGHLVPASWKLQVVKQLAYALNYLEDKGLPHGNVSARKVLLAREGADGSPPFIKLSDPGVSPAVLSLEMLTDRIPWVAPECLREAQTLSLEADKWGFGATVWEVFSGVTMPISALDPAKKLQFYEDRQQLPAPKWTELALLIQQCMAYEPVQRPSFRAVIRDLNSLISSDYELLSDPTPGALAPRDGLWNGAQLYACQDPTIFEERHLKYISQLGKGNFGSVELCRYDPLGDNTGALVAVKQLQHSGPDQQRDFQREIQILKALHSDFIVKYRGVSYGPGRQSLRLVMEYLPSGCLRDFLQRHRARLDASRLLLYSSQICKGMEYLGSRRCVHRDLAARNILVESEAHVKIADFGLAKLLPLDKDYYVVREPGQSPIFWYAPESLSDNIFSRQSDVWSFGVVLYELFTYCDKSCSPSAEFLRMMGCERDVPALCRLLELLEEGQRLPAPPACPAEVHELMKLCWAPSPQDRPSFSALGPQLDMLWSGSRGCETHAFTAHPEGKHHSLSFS
Description: biochemical. The arrangement: Eurofins Cerep biochemical enzymatic kinase assay, per cent inhibition at a single concentration, duplicate. The following applies: read-out: % of inhibition ^a / JAK3.

Assay [2] concerns the target T2, JAK1 (Homo sapiens, UniProt P23458). Description: biochemical enzymatic kinase assay, % inhibition at […].
The target of assay [3] is T3, TYK2 (Homo sapiens, UniProt P29597). Description: biochemical. On the set-up: Eurofins Cerep biochemical enzymatic kinase assay, per cent inhibition at a single concentration, duplicate. The source says:
(§1) Spiro diamines containing a deazapurine ring are known JAK inhibitors.[35]

Assay [4] addresses T4, JAK2 (Homo sapiens, UniProt O60674). Description: biochemical. On the set-up: Eurofins Cerep biochemical enzymatic kinase assay, per cent inhibition at a single concentration, duplicate.
From the text: as §1

Assay [5] has as its target T3, TYK2. Briefly: biochemical. On the set-up: radiometric filter-binding kinase inhibition assay (Eurofins Cerep), scintillation counting. As for the experimental part: (§2) Given the structural similarities between the expanded ring analogues 16a and 16b and the previously described inhibitor KMC420, we initially evaluated their activity at 0.1 μM against JAK1, JAK2, JAK3, and TYK2, using biochemical enzymatic assays provided by Eurofins Cerep SA.

Assay [6] deals with T4, JAK2. Description: biochemical. The arrangement: radiometric filter-binding kinase inhibition assay (Eurofins Cerep), scintillation counting. As for the experimental part: as §2
In assay [7] the target is T1, JAK3. Description: biochemical. The arrangement: radiometric filter-binding kinase inhibition assay (Eurofins Cerep), scintillation counting. The method, then: as §2
The target of assay [8] is T2, JAK1. Briefly: biochemical. The arrangement: radiometric filter-binding kinase inhibition assay (Eurofins Cerep), scintillation counting. The method, then: as §2
Assay [9] has as its target T2, JAK1. Briefly: biochemical enzymatic kinase assay, % inhibition at […]. The source holds these as a separate data set.
Assay [10] concerns the target T3, TYK2. Described as above.
For assay [11], the target named is T1, JAK3. The assay is described as above.
Assay [12] concerns the target T2, JAK1. Briefly: biochemical. On the set-up: Eurofins Cerep biochemical enzymatic kinase assay, per cent inhibition at a single concentration, duplicate. The method, then:
Given the structural similarities between the expanded ring analogues 16a and 16b and the previously described inhibitor KMC420, we initially evaluated their activity at 0.1 μM against JAK1, JAK2, JAK3, and TYK2, using biochemical enzymatic assays provided by Eurofins Cerep SA. […] Spiro diamines containing a deazapurine ring are known JAK inhibitors.[35] […] However, this compound was not tested against the other JAK enzymes. Due to its similarity to our potent compound 40a, we decided to investigate its inhibitory activity against the four enzymes at a concentration of 0.1 μM. […] To investigate the binding differences between 40a and (R)-KMC420, we performed docking studies with DOCK6 using the JAK1 co-crystal structure with tofacitinib (PDB 3EYG) as receptor.

The target of assay [13] is T2, JAK1. Description: biochemical enzymatic kinase assay (Eurofins Cerep), IC50 curve.

T4 sequence (O60674 whole entry): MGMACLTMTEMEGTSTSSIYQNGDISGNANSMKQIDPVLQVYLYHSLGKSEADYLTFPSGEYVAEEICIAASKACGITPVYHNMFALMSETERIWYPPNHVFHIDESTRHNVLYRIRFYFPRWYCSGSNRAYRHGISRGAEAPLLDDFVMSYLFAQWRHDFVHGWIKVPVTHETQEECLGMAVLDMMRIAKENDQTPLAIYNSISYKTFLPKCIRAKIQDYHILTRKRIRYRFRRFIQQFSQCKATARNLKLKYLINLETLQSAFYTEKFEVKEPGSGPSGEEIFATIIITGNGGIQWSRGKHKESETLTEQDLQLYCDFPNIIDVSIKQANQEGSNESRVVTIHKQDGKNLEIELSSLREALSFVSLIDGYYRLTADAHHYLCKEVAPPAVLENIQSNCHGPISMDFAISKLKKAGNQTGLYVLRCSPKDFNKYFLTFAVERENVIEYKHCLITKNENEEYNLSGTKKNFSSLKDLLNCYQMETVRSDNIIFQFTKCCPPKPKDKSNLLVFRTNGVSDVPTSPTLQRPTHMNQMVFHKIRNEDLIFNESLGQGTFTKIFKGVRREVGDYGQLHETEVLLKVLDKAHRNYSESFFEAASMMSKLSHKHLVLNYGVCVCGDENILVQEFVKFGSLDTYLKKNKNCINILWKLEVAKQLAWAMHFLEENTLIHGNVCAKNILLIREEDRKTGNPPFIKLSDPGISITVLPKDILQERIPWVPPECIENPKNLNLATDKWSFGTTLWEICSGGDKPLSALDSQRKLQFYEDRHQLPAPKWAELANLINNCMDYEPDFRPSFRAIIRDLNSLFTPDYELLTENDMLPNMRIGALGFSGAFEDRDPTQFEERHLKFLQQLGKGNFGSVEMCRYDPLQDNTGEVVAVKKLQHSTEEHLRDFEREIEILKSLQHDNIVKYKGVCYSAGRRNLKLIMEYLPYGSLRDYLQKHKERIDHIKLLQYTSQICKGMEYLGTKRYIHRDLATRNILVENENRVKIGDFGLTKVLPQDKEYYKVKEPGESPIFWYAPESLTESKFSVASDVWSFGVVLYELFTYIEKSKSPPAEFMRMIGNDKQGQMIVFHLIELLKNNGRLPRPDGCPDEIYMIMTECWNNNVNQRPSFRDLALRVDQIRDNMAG
T2 sequence (P23458 whole entry): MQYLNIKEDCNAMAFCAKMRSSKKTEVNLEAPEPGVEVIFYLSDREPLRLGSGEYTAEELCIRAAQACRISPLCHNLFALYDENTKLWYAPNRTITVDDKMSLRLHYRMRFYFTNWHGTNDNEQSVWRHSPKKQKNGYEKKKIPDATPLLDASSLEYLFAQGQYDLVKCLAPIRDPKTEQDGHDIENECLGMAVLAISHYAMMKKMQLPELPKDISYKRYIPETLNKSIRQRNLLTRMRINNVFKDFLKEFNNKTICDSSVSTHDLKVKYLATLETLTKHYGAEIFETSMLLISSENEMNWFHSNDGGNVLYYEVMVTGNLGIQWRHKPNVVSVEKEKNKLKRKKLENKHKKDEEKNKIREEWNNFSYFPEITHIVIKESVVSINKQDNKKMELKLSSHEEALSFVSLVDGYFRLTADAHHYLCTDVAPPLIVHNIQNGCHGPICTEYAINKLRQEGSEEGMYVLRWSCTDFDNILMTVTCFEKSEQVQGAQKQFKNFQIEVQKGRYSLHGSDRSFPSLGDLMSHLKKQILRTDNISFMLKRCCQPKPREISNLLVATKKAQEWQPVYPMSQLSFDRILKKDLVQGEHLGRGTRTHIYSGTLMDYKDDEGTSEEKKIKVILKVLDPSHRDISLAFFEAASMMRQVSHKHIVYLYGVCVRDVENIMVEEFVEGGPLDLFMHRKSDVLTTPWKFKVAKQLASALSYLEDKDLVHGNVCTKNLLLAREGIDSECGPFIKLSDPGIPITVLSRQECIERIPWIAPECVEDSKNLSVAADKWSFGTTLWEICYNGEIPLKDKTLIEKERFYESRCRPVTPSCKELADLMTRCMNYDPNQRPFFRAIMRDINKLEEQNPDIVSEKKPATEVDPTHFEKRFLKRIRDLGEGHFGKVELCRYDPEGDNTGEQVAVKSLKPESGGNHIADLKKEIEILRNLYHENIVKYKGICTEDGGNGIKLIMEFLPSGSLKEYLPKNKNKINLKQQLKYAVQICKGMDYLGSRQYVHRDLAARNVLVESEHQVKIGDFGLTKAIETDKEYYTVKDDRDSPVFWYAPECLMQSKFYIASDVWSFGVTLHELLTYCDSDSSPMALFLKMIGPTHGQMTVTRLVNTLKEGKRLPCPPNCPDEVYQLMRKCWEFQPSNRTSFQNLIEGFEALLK
T3 sequence (P29597 whole entry): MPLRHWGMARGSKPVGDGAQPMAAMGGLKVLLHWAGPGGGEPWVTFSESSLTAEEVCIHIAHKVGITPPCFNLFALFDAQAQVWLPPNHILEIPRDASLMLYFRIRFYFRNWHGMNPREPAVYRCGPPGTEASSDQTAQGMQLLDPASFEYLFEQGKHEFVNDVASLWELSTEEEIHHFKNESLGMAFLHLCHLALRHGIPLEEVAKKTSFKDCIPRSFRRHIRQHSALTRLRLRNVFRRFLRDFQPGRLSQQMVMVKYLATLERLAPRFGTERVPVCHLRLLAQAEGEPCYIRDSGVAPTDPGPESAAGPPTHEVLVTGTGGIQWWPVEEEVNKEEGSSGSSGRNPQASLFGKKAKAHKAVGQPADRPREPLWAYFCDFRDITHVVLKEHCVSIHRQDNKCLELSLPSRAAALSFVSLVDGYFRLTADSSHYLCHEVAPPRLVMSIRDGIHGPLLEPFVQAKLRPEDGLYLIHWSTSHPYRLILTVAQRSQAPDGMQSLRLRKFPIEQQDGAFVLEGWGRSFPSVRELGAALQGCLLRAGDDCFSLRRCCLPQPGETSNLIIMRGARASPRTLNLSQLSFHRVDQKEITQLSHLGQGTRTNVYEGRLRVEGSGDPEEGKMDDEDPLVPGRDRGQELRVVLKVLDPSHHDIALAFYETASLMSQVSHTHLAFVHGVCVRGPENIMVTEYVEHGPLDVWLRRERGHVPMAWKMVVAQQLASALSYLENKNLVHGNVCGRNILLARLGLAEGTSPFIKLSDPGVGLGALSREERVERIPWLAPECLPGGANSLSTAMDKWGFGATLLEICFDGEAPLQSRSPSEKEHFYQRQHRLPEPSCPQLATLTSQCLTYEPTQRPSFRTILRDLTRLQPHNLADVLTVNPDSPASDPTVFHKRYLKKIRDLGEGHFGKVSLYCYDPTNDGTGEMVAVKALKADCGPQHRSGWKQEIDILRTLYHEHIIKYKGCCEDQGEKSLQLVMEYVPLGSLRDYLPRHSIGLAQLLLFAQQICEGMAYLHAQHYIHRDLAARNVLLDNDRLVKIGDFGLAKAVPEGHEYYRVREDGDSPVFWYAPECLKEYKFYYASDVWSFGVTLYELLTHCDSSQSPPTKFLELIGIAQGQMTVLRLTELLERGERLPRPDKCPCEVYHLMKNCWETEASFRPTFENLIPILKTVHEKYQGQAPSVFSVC

Consider `C[C@]12CCN(c3ncnc4[nH]ccc34)[C@H]1CC[C@H]2NC#N` (racemic) [34c], for which the inhibition at 1 µM was 43 ± 3% in [1], 89 ± 2% in [2], 53 ± 5% in assay [3] and 45 ± 8% in [4].

On to `CCS(=O)(=O)N[C@@H]1CC[C@@H]2N(c3ncnc4[nH]ccc34)CC[C@@]21C` (racemic) [34d], for which the inhibition at 1 µM in assay [1] is 45 ± 6%; in assay [2], 88 ± 1%; in assay [3] it was 56 ± 1%; in assay [4] it was 61 ± 1%.

`C=CC(=O)N[C@H]1CC[C@@H]2N(c3ncnc4[nH]ccc34)CC[C@]12C` (racemic) [40b]: the inhibition at 1 µM in [5] was 70%; in assay [6], 52%; in assay [7], 55%; in assay [8], 93%. In addition, the inhibition at 10 µM was determined as 100% in assay [5], 96% in assay [6], 99% in [7] and 100% in assay [8]. Further, the inhibition at 0.1 µM was found to be 59 ± 2% in assay [9], 4 ± 1% in assay [1], 16 ± 2% in assay [3] and 8 ± 1% in [4].

For the molecule `C[C@]12CCN(c3ncnc4[nH]ccc34)[C@H]1CC[C@@H]2NC#N` (racemic) [40c], the inhibition at 0.1 µM in assay [10] was 61%; in [9], 70 ± 2%; in [11] it was 58 ± 1%; in [4], 18 ± 6%. In addition, the inhibition at 1 µM in [5] was determined as 92%; in assay [6] it was 58%; in [7], 96%; in [8], 95%. The inhibition at 10 µM was determined as 91% in assay [5], 85% in [6], 79% in [7] and 100% in [8].

As for `N#CN1CCC2(CCN(c3ncnc4[nH]ccc34)C2)C1` (racemic) [43c], the inhibition at 1 µM in assay [1] stood at 26 ± 1%; in assay [2] it was 93 ± 1%; in assay [3] it was 63 ± 2%; in assay [4], 59 ± 4%.

For the molecule `CC12CCN(c3ncnc4[nH]ccc34)C1CCC2NC(=O)CC#N` (stereo not shown) [34a], the inhibition at 1 µM is 43 ± 5% in assay [1], 41 ± 6% in [3], 41 ± 5% in [4] and 85 ± 1% in assay [12].

On to `C=CC(=O)NC1CCC2N(c3ncnc4[nH]ccc34)CCC12C` (stereo not shown) [34b], for which the inhibition at 1 µM amounted to 38 ± 1% in [1], 23 ± 5% in assay [3], 27 ± 3% in [4] and 73 ± 1% in assay [12].

With `CC12CCN(C(=O)CC#N)C1CCC2Nc1ncnc2[nH]ccc12` (stereo not shown) [36a], the values for the inhibition at 10 µM in assay [3], in assay [4] and in assay [12] were 75 ± 2%, 60% and 94%, respectively.

Consider `C=CC(=O)N1CCC2(C)C(Nc3ncnc4[nH]ccc34)CCC12` (stereo not shown) [36b], for which the inhibition at 10 µM in assay [1] amounted to 63 ± 1%; in [3], 52%; in assay [4] it was 47 ± 2%; in assay [12], 84 ± 2%.

Regarding `CC12CCN(C#N)C1CCC2Nc1ncnc2[nH]ccc12` (stereo not shown) [36c], the inhibition at 10 µM in [3] amounted to 74 ± 3%; in assay [4], 80 ± 3%; in [12] it was 92%.

In the case of `CCS(=O)(=O)N1CCC2(C)C(Nc3ncnc4[nH]ccc34)CCC12` (stereo not shown) [36d], the inhibition at 1 µM in assay [5] turned out to be 53%; in [6] it was 11%; in assay [7] it was 44%; in assay [8], 45%. Further, the inhibition at 10 µM in assay [5] was found to be 97%; in [6], 98%; in assay [7], 96%; in assay [8], 99%; in [1] it was 42 ± 3%; in assay [3], 67 ± 1%. Moreover, the inhibition at 10 µM is 51 ± 3% in assay [4] and 86 ± 1% in assay [12].

For `CC12CCN(c3ncnc4[nH]ccc34)C1CCC2NC(=O)CC#N` (stereo not shown) [40a], the inhibition at 1 µM amounted to 82% in [5], 72% in assay [6], 79% in assay [7] and 99% in [8]. Moreover, the inhibition at 10 µM in assay [5] amounted to 95%; in assay [6], 91%; in assay [7], 89%; in assay [8], 99%. Moreover, the inhibition at 0.1 µM came out at 27 ± 1% in assay [1], 29 ± 3% in [3], 3 ± 1% in assay [4] and 80 ± 3% in assay [12].

For `CCS(=O)(=O)NC1CCC2N(c3ncnc4[nH]ccc34)CCC12C` (stereo not shown) [40d], the inhibition at 1 µM was determined as 38% in assay [6], 11% in [7] and 76% in assay [8]. For the same molecule, the inhibition at 0.1 µM is -10 ± 11% in [1], 11 ± 12% in [3], 1 ± 8% in [4] and 28 ± 6% in assay [12].

On to `CCS(=O)(=O)N1CCC2(CCN(c3ncnc4[nH]ccc34)C2)C1` (stereo not shown) [43d], for which the inhibition at 1 µM in [1] came out at 22 ± 1%; in assay [3] it was 34 ± 8%; in assay [4] it was 54 ± 6%; in [12], 87 ± 1%.

The term IC50 denotes the midpoint of a concentration-inhibition curve. Lower therefore signals inhibition by little substance. The molecule `C[C@]12CCN(c3ncnc4[nH]ccc34)[C@H]1CC[C@@H]2NC(=O)CC#N` [(R,S,S)-40a] gave an IC50 in assay [13] of 0.069 µM.

In assay [13], `C[C@@]12CCN(c3ncnc4[nH]ccc34)[C@@H]1CC[C@H]2NC(=O)CC#N` [(S,R,R)-40a] gave an IC50 of 0.018 µM.
